Patent US20060069132A1, “Azolecarboxamide herbicides” (priority 2004, published 2006)

Tests used:
Canada horseweed = test: Test E pre-/postemergence herbicide test; assay type: in vivo, Erigeron Canadensis
Source text: (§1) Seeds of plant species selected from bipinnate beggarticks (Bidens bipinnata L.), hairy beggarticks (Bidens radiata Thuill.), bermudagrass (Cynodon dactylon (L.) Pers.), Surinam grass (Urochloa decumbens (Staph) R. D. Webster, previously named Brachiaria decumbens Stapf), large crabgrass (Digitaria sanguinalis (L.) Scop.), green foxtail (Setaria viridis (L.) P. Beauv.), goosegrass (Eleusine indica (L.) Gaertn.), johnsongrass (Sorghum halepense (L.) Pers.), kochia (Kochia scoparia (L.) Schrad.), pitted morningglory (Ipomoea lacunosa L.), purple nutsedge (Cyperus rotundus L.), common ragweed (Ambrosia elatior L.), mustard (Brassica nigra (L.) W. D. J. Koch), guineagrass (Panicum maximum Jacq.), dallisgrass (Paspalum dilatatum Poir.), barnyardgrass (Echinochloa crus-galli (L). P. Beauv.), southern sandbur (Cenchrus echinatus L.), common sowthistle (Sonchus oleraceous L.), prickly sida (Sida spinosa L.), Italian ryegrass (Lolium multiflorum Lam.), common purslane (Portulaca oleracea L.), broadleaf signalgrass (Brachiaria platyphylla (Griseb.) Nash), common groundsel (Senecio vulgaris L.), common chickweed (Stellaria media (L.) Vill/Cyr.), tropical spiderwort (Commelina benghalensis L.), annual bluegrass (Poa annua L.), downy bromegrass (Bromus tectorum L.), itchgrass (Rottboellia cochinchinensis (L.) L.f.), quackgrass (Elytrigia repens (L.) Nevski), Canada horseweed (Erigeron Canadensis L.), field bindweed (Convolvulus arvensis L.), spotted spurge (Euphorbia maculata L.), common mallow (Malva sylvestris (=s silvestris) L.), and Russian thistle (Salsola kali L. ssp. Ruthenica (Iljin) Soo) were planted and treated preemergence with test chemicals formulated in a non-phytotoxic solvent mixture which included a surfactant.
(§2) At the same time, plants selected from these weed species were treated with postemergence applications of some of the test chemicals formulated in the same manner. Plants ranged in height from 2 to 18 cm (1- to 4-leaf stage) for postemergence treatments. Treated plants and controls were maintained in a greenhouse for 12 to 14 days, after which time all species were compared to controls and visually evaluated. Plant response ratings, summarized in Table E, are based on a scale of 0 to 100 where 0 is no effect and 100 is complete control. A dash (-) response means no test result.

large crabgrass = test: Test E pre-/postemergence herbicide test; assay type: in vivo, Digitaria sanguinalis
Source text: as §1, §2

barnyardgrass = test: Test E pre-/postemergence herbicide test; assay type: in vivo, Echinochloa crus-galli
Source text: as §1, §2

broadleaf signalgrass = test: Test E pre-/postemergence herbicide test; assay type: in vivo, Brachiaria platyphylla
Source text: as §1, §2

Italian ryegrass [1] = test: Test E pre-/postemergence herbicide test; assay type: in vivo, Lolium multiflorum
Source text: as §1, §2

downy bromegrass = test: Test E pre-/postemergence herbicide test; assay type: in vivo, Bromus tectorum
Source text: as §1, §2

pitted morningglory = test: Test E pre-/postemergence herbicide test; assay type: in vivo, Ipomoea lacunosa
Source text: as §1, §2

goosegrass = test: Test E pre-/postemergence herbicide test; assay type: in vivo, Eleusine indica
Source text: as §1, §2

prickly sida = test: Test E pre-/postemergence herbicide test; assay type: in vivo, Sida spinosa; conditions: Preemergence
Source text: as §1, §2

Italian ryegrass [2] = test: Test C postemergence herbicide test; assay type: in vivo, Lolium multiflorum
Method in brief: (§3)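 Postemergence sprays were applied to plants 2 to 18 cm tall (1- to 4-leaf stage); in the flooded paddy test, barnyardgrass was grown to the 2-leaf stage. After 12 to 14 days in a greenhouse, injury was visually rated against untreated controls on a 0–100 scale (100 = complete control).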

wheat = test: Test C postemergence herbicide test; assay type: in vivo, Triticum aestivum
Method in brief: as §3

winter barley = test: Test C postemergence herbicide test; assay type: in vivo, Hordeum vulgare
Method in brief: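 Ratings (0 = no effect, 100 = complete control) come from visual comparison with untreated plants after 12 to 14 days in the greenhouse. Treatment was postemergence at the 1- to 4-leaf stage (2–18 cm), or at the 2-leaf stage for the flooded paddy barnyardgrass.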

canarygrass = test: Test C postemergence herbicide test; assay type: in vivo, Phalaris minor
Method in brief: as §3

[3] = Postemergence, 500 g ai/ha, scale 0 to 100
[4] = Postemergence, 250 g ai/ha, scale 0 to 100
[5] = Preemergence, 62 g ai/ha, scale 0 to 100
[6] = Preemergence, 125 g ai/ha, scale 0 to 100
[7] = Preemergence, 250 g ai/ha, scale 0 (no effect) to 100 (complete control)
[8] = Preemergence, 500 g ai/ha, scale 0 (no effect) to 100 (complete control)
[9] = postemergence, 125 g ai/ha, scale 0 to 100
[10] = postemergence, 62 g ai/ha, scale 0 to 100
[11] = Postemergence, 250 g ai/ha, scale 0 to 100, 0 no effect, 100 complete control
[12] = postemergence, 31 g ai/ha, scale 0 to 100

CCn1nc(C(C)(C)C)cc1C(=O)Nc1cc(C(=O)N(C)C)ccn1 [Compound 156, 2-[[[3-(1,1-dimethylethyl)-1-ethyl-1H-pyrazol-5-yl]carbonyl]amino]-N,N-dimethyl-4-pyridinecarboxamide]
90: Plant response rating, Crabgrass, Large (large crabgrass; [6]) | Plant response rating, Barnyardgrass (barnyardgrass; [10]) | Plant response rating, Signalgrass (broadleaf signalgrass; [7]) | Plant response rating, Ryegrass, Italian (Italian ryegrass [1]; [10]) | Plant response rating, Bromegrass, Downy (downy bromegrass; [10]) | Plant response rating, Morningglory (pitted morningglory; [3])
95: Plant response rating, Horseweed (Canada horseweed; [5]) | Plant response rating, Crabgrass, Large (large crabgrass; [4]) | Plant response rating, Crabgrass, Large (large crabgrass; [7]) | Plant response rating, Crabgrass, Large (large crabgrass; [8]) | Plant response rating, Barnyardgrass (barnyardgrass; [9]) | Plant response rating, Signalgrass (broadleaf signalgrass; [4]) | Plant response rating, Signalgrass (broadleaf signalgrass; [8]) | Plant response rating, Ryegrass, Italian (Italian ryegrass [1]; [6]) | Plant response rating, Ryegrass, Italian (Italian ryegrass [1]; [9]) | Plant response rating, Goosegrass (goosegrass; [5]) | Plant response rating, Goosegrass (goosegrass; [6]) | Plant response rating, Goosegrass (goosegrass; [10])
98: Plant response rating, Crabgrass, Large (large crabgrass; [3]) | Plant response rating, Barnyardgrass (barnyardgrass; [3]) | Plant response rating, Barnyardgrass (barnyardgrass; [4]) | Plant response rating, Signalgrass (broadleaf signalgrass; [3]) | Plant response rating, Ryegrass, Italian (Italian ryegrass [1]; [3]) | Plant response rating, Ryegrass, Italian (Italian ryegrass [1]; [4]) | Plant response rating, Goosegrass (goosegrass; [3]) | Plant response rating, Goosegrass (goosegrass; [4]) | Plant response rating, Goosegrass (goosegrass; [9])
100: Plant response rating, Horseweed (Canada horseweed; [3]) | Plant response rating, Horseweed (Canada horseweed; [4]) | Plant response rating, Horseweed (Canada horseweed; [6]) | Plant response rating, Horseweed (Canada horseweed; [7]) | Plant response rating, Horseweed (Canada horseweed; [8]) | Plant response rating, Barnyardgrass (barnyardgrass; [5]) | Plant response rating, Barnyardgrass (barnyardgrass; [6]) | Plant response rating, Barnyardgrass (barnyardgrass; [7]) | Plant response rating, Barnyardgrass (barnyardgrass; [8]) | Plant response rating, Ryegrass, Italian (Italian ryegrass [1]; [7]) | Plant response rating, Ryegrass, Italian (Italian ryegrass [1]; [8]) | Plant response rating, Bromegrass, Downy (downy bromegrass; [3]) | Plant response rating, Bromegrass, Downy (downy bromegrass; [4]) | Plant response rating, Bromegrass, Downy (downy bromegrass; [7]) | Plant response rating, Bromegrass, Downy (downy bromegrass; [8]) | Plant response rating, Bromegrass, Downy (downy bromegrass; [9]) | Plant response rating, Morningglory (pitted morningglory; [6]) | Plant response rating, Morningglory (pitted morningglory; [7]) | Plant response rating, Morningglory (pitted morningglory; [8]) | Plant response rating, Goosegrass (goosegrass; [7]) | Plant response rating, Goosegrass (goosegrass; [8])
80: Plant response rating, Crabgrass, Large (large crabgrass; [9]) | Plant response rating, Bromegrass, Downy (downy bromegrass; [6]) | Plant response rating, Morningglory (pitted morningglory; [4])
30: Plant response rating, Morningglory (pitted morningglory; [5])
40: Plant response rating, Signalgrass (broadleaf signalgrass; [10])
10: Plant response rating, Morningglory (pitted morningglory; [10])
65: Plant response rating, Morningglory (pitted morningglory; [9])
35: Plant response rating, Crabgrass, Large (large crabgrass; [10])
85: Plant response rating, Signalgrass (broadleaf signalgrass; [5]) | Plant response rating, Signalgrass (broadleaf signalgrass; [9])
60: Plant response rating, Ryegrass, Italian (Italian ryegrass [1]; [5]) | Plant response rating, Bromegrass, Downy (downy bromegrass; [5])

CCN1N=C(C(C)(C)C)CC1C(=O)Nc1cc(C(=O)N(C)C)ccc1F (stereo not drawn) [Compound 268, N-[5-[(dimethylamino)carbonyl]-2-fluorophenyl]-3-(1,1-dimethylethyl)-1-ethyl-4,5-dihydro-1H-pyrazole-5-carboxamide]
85: Plant response rating, Barnyardgrass (barnyardgrass; [6])
70: Plant response rating, Crabgrass, Large (large crabgrass; [5]) | Plant response rating, Goosegrass (goosegrass; [5])
80: Plant response rating, Prickly Sida (prickly sida; 125 g ai/ha, scale 0 to 100) | Plant response rating, Crabgrass, Large (large crabgrass; [6]) | Plant response rating, Signalgrass (broadleaf signalgrass; [7]) | Plant response rating, Signalgrass (broadleaf signalgrass; [8]) | Plant response rating, Bromegrass, Downy (downy bromegrass; [6]) | Plant response rating, Bromegrass, Downy (downy bromegrass; [7]) | Plant response rating, Goosegrass (goosegrass; [6])
25: Plant response rating, Wheat (wheat; [11])
60: Plant response rating, Prickly Sida (prickly sida; 62 g ai/ha, scale 0 to 100) | Plant response rating, Barnyardgrass (barnyardgrass; [5]) | Plant response rating, Signalgrass (broadleaf signalgrass; [6]) | Plant response rating, Morningglory (pitted morningglory; [8])
95: Plant response rating, Crabgrass, Large (large crabgrass; [7]) | Plant response rating, Crabgrass, Large (large crabgrass; [8]) | Plant response rating, Ryegrass, Italian (Italian ryegrass [1]; [5]) | Plant response rating, Ryegrass, Italian (Italian ryegrass [1]; [6]) | Plant response rating, Ryegrass, Italian (Italian ryegrass [1]; [7]) | Plant response rating, Ryegrass, Italian (Italian ryegrass [1]; [8]) | Plant response rating, Goosegrass (goosegrass; [7]) | Plant response rating, Goosegrass (goosegrass; [8])
10: Plant response rating, Ryegrass, Italian (Italian ryegrass [2]; [10]) | Plant response rating, Canarygrass (canarygrass; [12]) | Plant response rating, Canarygrass (canarygrass; [10]) | Plant response rating, Morningglory (pitted morningglory; [5]) | Plant response rating, Morningglory (pitted morningglory; [6])
50: Plant response rating, Canarygrass (canarygrass; [11])
100: Plant response rating, Prickly Sida (prickly sida; 250 g ai/ha, scale 0 (no effect) to 100 (complete control)) | Plant response rating, Prickly Sida (prickly sida; 500 g ai/ha, scale 0 (no effect) to 100 (complete control)) | Plant response rating, Barnyardgrass (barnyardgrass; [7]) | Plant response rating, Barnyardgrass (barnyardgrass; [8]) | Plant response rating, Bromegrass, Downy (downy bromegrass; [8])
15: Plant response rating, Barley, Winter (winter barley; Postemergence, 125 g ai/ha, scale 0 to 100, 0 no effect, 100 complete control)
0: Plant response rating, Wheat (wheat; [9]) | Plant response rating, Wheat (wheat; [10]) | Plant response rating, Barley, Winter (winter barley; [12]) | Plant response rating, Barley, Winter (winter barley; postemergence, 62 g ai/ha, scale 0 to 100 (0 no effect, 100 complete control))
20: Plant response rating, Signalgrass (broadleaf signalgrass; [5])
40: Plant response rating, Ryegrass, Italian (Italian ryegrass [2]; [11]) | Plant response rating, Morningglory (pitted morningglory; [7])
30: Plant response rating, Ryegrass, Italian (Italian ryegrass [2]; [9]) | Plant response rating, Barley, Winter (winter barley; [11]) | Plant response rating, Canarygrass (canarygrass; [9])
